Here are results for 52 compounds from PubChem BioAssay AID1996.

Molecules are shown by their SMILES. In brackets after ≈: the same amount, converted by molar mass. Bounds are passed on as bounds.

The kinetic solubility is solubility judged after dilution from a stock solution rather than from solid.

For this series the following is noted: buffer; pH 7.4; 200.0 µM.
Compound `CCc1cccc(C)c1NC(=S)N1CCCCC1c1cccnc1` (configuration not stated) came in with a kinetic solubility of 46.3 µg/mL (≈ 136 µM). `CC(C)COc1cccc(C(=O)NC2(C)CCS(=O)(=O)C2)c1` (configuration not stated): the kinetic solubility is above 48.8 µg/mL. `S=C(c1ccc2c(c1)OCO2)N1CCOCC1` showed a kinetic solubility above 37.7 µg/mL. For `Nc1nc(NCC(=O)O)nc(NCc2ccccc2)c1[N+](=O)[O-]` the value was above 47.7 µg/mL; for `O=C(Cn1cc(C(F)(F)F)ccc1=O)NC1CCCC1`, above 43.2 µg/mL. The compound `COc1cc(CC(=O)OCC(=O)N2CCN(C(=O)c3ccco3)CC2)cc(OC)c1OC` had a kinetic solubility above 67 µg/mL.

For the compound `CCOC(=O)c1csc(NC(=O)C2=COCCO2)n1`, the kinetic solubility is above 42.6 µg/mL. For `CC(=O)C1=C(O)C(=O)N(c2ccc(O)cc2)C1c1ccc(C)cc1` (configuration not stated) the value was above 48.5 µg/mL. As to `CCCOC(=O)Cn1cnc2scc(-c3ccc(C)cc3)c2c1=O`, the kinetic solubility amounted to 17.2 µg/mL (≈ 50.2 µM). Compound `C/C(=N\S(=O)(=O)c1ccc(C)cc1)NC(=S)Nc1ccccc1` came in with a solubility (kinetic) of 2.1 µg/mL (≈ 6.04 µM). As for `Cc1noc(C)c1COC(=O)c1cccnc1Cl`, the figure is above 40 µg/mL; as for `CCn1c(=O)c2ccccc2n(CC(=O)NC2CCCCC2)c1=O`, 15.4 µg/mL (≈ 46.8 µM).

As for `CC(=O)c1sc(-c2ccccc2)cc1N`, the solubility (kinetic) is 28.4 µg/mL (≈ 131 µM). Turning to `CCOC(=O)C1=C(C)NC(=O)NC1c1ccc([N+](=O)[O-])o1` (configuration not stated), the kinetic solubility is 42.7 µg/mL (≈ 145 µM). As for `CN(C)/C=N/C(=S)Nc1ccccc1`, the kinetic solubility is above 31.1 µg/mL.

For `COc1cc(CCC(=O)NCc2ccc(F)cc2)cc(OC)c1OC`, the solubility (kinetic) was above 52.1 µg/mL.

For `CC(C)N1C(=O)c2ccccc2N(Cc2ccccc2)S1(=O)=O`, the solubility (kinetic) worked out at 5.7 µg/mL (≈ 17.3 µM).

Consider `CC(NC(=O)c1ccccc1C(=O)O)c1ccc(-n2ccnc2)cc1` (configuration not stated), for which the kinetic solubility was above 50.3 µg/mL.

For the compound `O=C(NC1CCCC1)c1c(O)nc2sccn2c1=O`, the solubility (kinetic) is above 41.9 µg/mL. In the case of `COc1ccccc1-c1nc2cc(Cl)ccc2c(=O)n1O`, the kinetic solubility is above 45.4 µg/mL. For the compound `C=CCOc1ccc(/C=C/C(=O)OCC(=O)NC2CCCCCCC2)cc1`, the solubility (kinetic) was below 0.8 µg/mL.

As for `CCCCNC(=O)C1CCCN(S(=O)(=O)CC)C1` (configuration not stated), the kinetic solubility is above 41.5 µg/mL.

In turn, `COc1ccc2cc(C(N)=O)c(=Nc3ccc(C)cc3)oc2c1` yielded a solubility (kinetic) below 0.3 µg/mL. Regarding `N#Cc1ccc(/C=C/C(=O)c2ccc3c(c2)OCO3)cc1`, the solubility (kinetic) came to 2.9 µg/mL (≈ 10.5 µM). Compound `O=C(O)CC1(CC(=O)Nc2cccc(C(F)(F)F)c2)CCCC1` displayed a kinetic solubility above 49.4 µg/mL. For `COc1ccc(NC(=O)c2cc3ccccc3[nH]2)cc1` the value was 1.5 µg/mL (≈ 5.63 µM); for `CCn1c(C)cc(C)c(C#N)c1=O`, above 26.4 µg/mL. Compound `CCn1c(SC)nc2cc(S(=O)(=O)N3CCCCC3)ccc21` registered a solubility (kinetic) of 43.6 µg/mL (≈ 128 µM). `CC(=O)Nc1ccc(NC(=O)Nc2ccccc2C)cc1` registered a kinetic solubility of 1.8 µg/mL (≈ 6.35 µM). As for `CS(=O)(=O)NCC(c1cccnc1)N1CCN(c2ccccc2F)CC1` (configuration not stated), the kinetic solubility is 55.4 µg/mL (≈ 146 µM). In the case of `N#CCSc1nc2sccc2c(=O)n1-c1ccccc1`, the kinetic solubility was found to be 37 µg/mL (≈ 124 µM). `O=C(COc1ccccc1Cl)NCCCNC(=O)c1ccccn1`: the kinetic solubility is above 52.2 µg/mL. The compound `C=CCn1c(=S)[nH]c2cc(-c3ccccc3)sc2c1=O` showed a solubility (kinetic) below 0.3 µg/mL. As for `CCCCCc1c(C)[nH]c2nc3ccccc3n2c1=O`, the figure is 0.3 µg/mL (≈ 1.11 µM).

On to `O=C(Nc1cccnc1)c1cc(-c2ccc(Cl)cc2)on1`, for which the kinetic solubility is 0.3 µg/mL (≈ 1 µM). For `Cc1ccc(Nc2nc(Cl)nc(NC(C)(C)C)n2)cc1`, the solubility (kinetic) was 3.8 µg/mL (≈ 13 µM). As for `COc1ccccc1/C=C/C(=O)NC(=S)Nc1ccccn1`, the solubility (kinetic) was 1.3 µg/mL (≈ 4.15 µM). `Cc1cc2[nH]c3ccccc3c2cn1` gave a kinetic solubility above 27.3 µg/mL. `Cc1cc(=O)[nH]c(SCC(=O)Nc2ccc3c(c2)CCC3)c1C#N` came in with a solubility (kinetic) of 17.7 µg/mL (≈ 52.1 µM).

The compound `Cn1ccnc1-c1ccc(-c2nccn2C)cc1` came in with a kinetic solubility of 33.8 µg/mL (≈ 142 µM). `CC(Oc1cccnc1[N+](=O)[O-])C(=O)Nc1ccc(Cl)cn1` (configuration not stated) came in with a kinetic solubility of 17 µg/mL (≈ 52.7 µM). As for `O=C(Nc1cccc(O)c1)C1CC(c2cccc(Br)c2)=NO1` (configuration not stated), the solubility (kinetic) came to 28 µg/mL (≈ 77.5 µM). Consider `O=C(NCc1cccnc1)Nc1cc(Cl)cc(Cl)c1`, for which the kinetic solubility amounted to 15.2 µg/mL (≈ 51.3 µM).

With `CNc1cc(Cl)nc(SC)n1`, the solubility (kinetic) is above 28.4 µg/mL. For `NC(=O)c1cccnc1` the value was 2.8 µg/mL (≈ 22.9 µM); for `COc1ccc(CCNC(=O)C2CCN(C(=O)c3ccccc3)CC2)cc1`, 49.2 µg/mL (≈ 134 µM); for `Cn1cccc1C(=O)OCC(=O)c1c[nH]c2ccccc12`, 9.9 µg/mL (≈ 35.1 µM). `CCN(CC(=O)Nc1ccc(OC(F)F)cc1)C1CCCCC1`: the solubility (kinetic) amounted to 33.1 µg/mL (≈ 101 µM).

With `CC1(C)CC(=O)C2=C(C1)Nc1ccccc1NC2c1cccc(F)c1` (configuration not stated), the solubility (kinetic) is above 50.5 µg/mL.

Compound `O=C1CC(Cc2ccc(Cl)cc2)C(=O)N1c1cc(Cl)ccn1` (configuration not stated) returned a solubility (kinetic) of 29.4 µg/mL (≈ 87.7 µM). As for `Cc1ccc(S(=O)(=O)N2CCOCC2)cc1C(=O)OCC(=O)NCCc1ccc(F)cc1`, the figure is 60.2 µg/mL (≈ 130 µM); as for `O=C(COc1ccccc1Br)N1CCNC1=O`, 42.2 µg/mL (≈ 141 µM).
